Activity calls are given as the source filed them.
Legend:
[1] = molecular target: 5-hydroxytryptamine receptor 2A (Mus musculus, UniProt P35363); type: functional, cell-based;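 note: CHO-K1 cells with tagged receptor and beta-arrestin; agonist potency measured as compound-induced activation of the receptor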
Mu-type opioid receptor = Mu-type opioid receptor (Homo sapiens, UniProt P35372); type: functional, cell-based;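 note: U2OS cells with beta-arrestin recruitment to OPRM1 by beta-gal complementation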
[2] = molecular target: T1, Corticotropin-releasing factor receptor 2/Corticotropin-releasing factor-binding protein (Homo sapiens, UniProt P24387+Q13324); experiment: Dose Response confirmation of uHTS hits for small molecule antagonists of the CRF-binding protein and CRF-R2 receptor complex.; type: functional; details: read-out: IC50_Mean
T1 sequence (Q13324 whole entry): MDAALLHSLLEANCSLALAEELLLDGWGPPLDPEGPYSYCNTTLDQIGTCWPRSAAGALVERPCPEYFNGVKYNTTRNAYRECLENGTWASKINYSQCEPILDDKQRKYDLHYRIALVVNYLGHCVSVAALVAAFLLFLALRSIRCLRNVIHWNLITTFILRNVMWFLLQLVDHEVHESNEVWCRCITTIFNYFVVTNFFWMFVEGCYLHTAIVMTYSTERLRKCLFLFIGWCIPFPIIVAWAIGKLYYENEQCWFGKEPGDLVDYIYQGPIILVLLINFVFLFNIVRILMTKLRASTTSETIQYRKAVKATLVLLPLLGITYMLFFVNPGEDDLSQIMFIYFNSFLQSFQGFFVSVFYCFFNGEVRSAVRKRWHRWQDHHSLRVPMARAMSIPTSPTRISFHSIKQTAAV
T1 sequence (P24387 whole entry): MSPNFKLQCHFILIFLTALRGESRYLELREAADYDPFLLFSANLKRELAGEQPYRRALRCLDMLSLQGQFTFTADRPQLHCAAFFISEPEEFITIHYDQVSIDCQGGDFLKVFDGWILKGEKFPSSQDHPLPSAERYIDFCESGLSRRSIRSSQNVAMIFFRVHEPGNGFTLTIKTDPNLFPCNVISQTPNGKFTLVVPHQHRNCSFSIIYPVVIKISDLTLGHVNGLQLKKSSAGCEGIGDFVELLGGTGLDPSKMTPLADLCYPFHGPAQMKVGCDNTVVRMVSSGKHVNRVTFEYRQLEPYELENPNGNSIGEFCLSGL

[3] = molecular target: T1, Corticotropin-releasing factor receptor 2/Corticotropin-releasing factor-binding protein; experiment: activators of CRF receptor 2 with binding protein – uHTS hits, confirmation (AID 602473); type: functional; details: read-out: EC50_Mean
[4] = molecular target: Glucose-6-phosphate 1-dehydrogenase (Homo sapiens, UniProt P11413); experiment: inhibition of Homo sapiens G6PD, dose series – biochemical, fluorescence, selectivity assay for P. falciparum G6PD inhibitor project, dose response (AID 504792); type: functional
Paired box protein Pax-8 = Paired box protein Pax-8 (Homo sapiens, UniProt Q06710); experiment: PAX8 transcriptional activity inhibition in RMG-I – RMG-I cells, luciferase, cherry-pick, dose response (AID 687027); type: functional, cell-based;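 note: luciferase reporter driven by Pax8 target thyroperoxidase promoter measured by SteadyGlo luminescence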
[5] = OVCAR-3 cell viability loss – plate reader, dry powder samples, PAX8 inhibitor project, dose response (AID 743044); type: functional, cell-based
[6] = OVCAR8 cell viability loss – plate reader, dry powder samples, PAX8 project, dose response (AID 743197); type: functional, cell-based; details: OVCAR-8
[7] = growth inhibition of PfATP4-mutant resistant parasites – NITD609-resistant line, SYBR Green, dry powder, dose response (AID 1159571); type: functional, cell-based;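 note: parasites synchronized at ring stage by sorbitol before testing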
[8] = toxicity to human HepG2 hepatoma cells – cell-based, plate reader, dry powder samples, cytotoxicity control, dose response (AID 1159569); type: functional;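 note: inhibitor potency with signal falling toward the positive control level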
[9] = Dd2 malaria parasite growth inhibition potency – SYBR Green, dry powder samples, dose response (AID 1159566); type: functional, cell-based;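 note: potency for growth inhibition with lower SYBR green DNA signal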
[10] = P. falciparum Dd2 growth inhibitors, dose response, SYBR Green, cherry-picked samples (AID 1159567); type: functional, cell-based
[11] = growth inhibition of yeast DHODH-expressing 3D7 parasites – SYBR Green, dry powder samples, dose response (AID 1159570); type: functional, cell-based;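 note: parasite growth measured after 72 hours of compound exposure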

Paired box protein Pax-8, sequence (Q06710 whole entry): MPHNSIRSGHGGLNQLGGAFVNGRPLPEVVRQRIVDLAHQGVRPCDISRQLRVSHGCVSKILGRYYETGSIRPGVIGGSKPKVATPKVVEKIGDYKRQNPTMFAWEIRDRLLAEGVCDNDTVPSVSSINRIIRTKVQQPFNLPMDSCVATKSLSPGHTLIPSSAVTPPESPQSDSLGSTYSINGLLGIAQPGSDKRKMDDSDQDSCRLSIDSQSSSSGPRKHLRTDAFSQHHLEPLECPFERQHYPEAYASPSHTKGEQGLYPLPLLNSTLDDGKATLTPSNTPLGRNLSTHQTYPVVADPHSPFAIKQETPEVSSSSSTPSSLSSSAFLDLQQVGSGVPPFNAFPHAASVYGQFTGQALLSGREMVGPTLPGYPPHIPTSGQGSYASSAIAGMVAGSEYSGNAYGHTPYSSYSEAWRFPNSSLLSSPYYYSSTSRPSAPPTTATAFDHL
Mu-type opioid receptor, sequence (P35372 whole entry): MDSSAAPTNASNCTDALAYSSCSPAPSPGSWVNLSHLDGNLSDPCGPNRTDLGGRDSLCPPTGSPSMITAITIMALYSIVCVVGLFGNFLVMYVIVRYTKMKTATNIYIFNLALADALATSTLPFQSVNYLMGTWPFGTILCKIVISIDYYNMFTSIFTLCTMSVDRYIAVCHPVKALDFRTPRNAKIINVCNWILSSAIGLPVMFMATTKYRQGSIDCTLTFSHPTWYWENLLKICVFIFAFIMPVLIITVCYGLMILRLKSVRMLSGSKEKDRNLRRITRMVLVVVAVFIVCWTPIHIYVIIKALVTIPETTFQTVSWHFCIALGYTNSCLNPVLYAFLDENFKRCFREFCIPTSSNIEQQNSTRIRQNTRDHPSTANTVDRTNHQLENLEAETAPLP
Glucose-6-phosphate 1-dehydrogenase, sequence (P11413 whole entry): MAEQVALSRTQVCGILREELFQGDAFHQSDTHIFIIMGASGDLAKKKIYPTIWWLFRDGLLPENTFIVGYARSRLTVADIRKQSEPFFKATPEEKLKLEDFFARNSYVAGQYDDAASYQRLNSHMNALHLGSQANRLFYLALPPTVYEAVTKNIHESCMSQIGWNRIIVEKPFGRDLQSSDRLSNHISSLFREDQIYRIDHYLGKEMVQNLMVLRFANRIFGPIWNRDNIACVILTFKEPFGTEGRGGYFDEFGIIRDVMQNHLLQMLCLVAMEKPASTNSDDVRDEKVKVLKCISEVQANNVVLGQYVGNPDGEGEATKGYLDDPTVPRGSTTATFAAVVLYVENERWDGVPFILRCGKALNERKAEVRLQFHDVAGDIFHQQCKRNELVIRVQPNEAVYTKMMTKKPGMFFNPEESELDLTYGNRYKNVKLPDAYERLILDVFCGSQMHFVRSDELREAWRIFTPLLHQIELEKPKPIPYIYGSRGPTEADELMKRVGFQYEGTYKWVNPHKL
5-hydroxytryptamine receptor 2A, sequence (P35363 whole entry): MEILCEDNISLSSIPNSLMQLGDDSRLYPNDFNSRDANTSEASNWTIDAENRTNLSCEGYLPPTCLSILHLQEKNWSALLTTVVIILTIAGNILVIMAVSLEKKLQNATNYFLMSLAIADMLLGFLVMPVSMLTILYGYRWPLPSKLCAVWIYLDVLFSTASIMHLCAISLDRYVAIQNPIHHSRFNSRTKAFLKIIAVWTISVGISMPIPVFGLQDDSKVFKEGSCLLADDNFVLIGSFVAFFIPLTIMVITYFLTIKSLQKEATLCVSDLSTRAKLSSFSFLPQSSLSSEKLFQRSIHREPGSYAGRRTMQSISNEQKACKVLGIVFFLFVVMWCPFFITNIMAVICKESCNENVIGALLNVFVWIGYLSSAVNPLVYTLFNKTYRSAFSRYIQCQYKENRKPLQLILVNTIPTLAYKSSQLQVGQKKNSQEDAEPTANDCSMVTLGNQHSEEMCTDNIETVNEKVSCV

In the case of `CC(=O)c1cccc(OCC(O)CN2CC=C(c3ccccc3)CC2)c1` (stereo unspecified), the EC50 [1] is reported as 0.0752 µM (active) and the EC50 (Mu-type opioid receptor) is reported as 92.5 µM (inactive).

In the case of `Cc1ccc(CN(C(=O)c2ccccc2[N+](=O)[O-])C2CCS(=O)(=O)C2)o1` (stereo unspecified), the IC50 [2] is reported as > 47.1 µM (inactive) and the EC50 [3] is reported as > 53 µM (inactive).

For `Cc1ccc(S(=O)(=O)N(C)C)cc1NC(=O)CSc1nc2cc(Cl)c[nH]c-2n1`, the IC50 [4] was > 80 µM (inactive).

In the case of `Cc1ccccc1-c1ccc2c(c1)O[C@H](CN(C)C(=O)Nc1ccc(C(F)(F)F)cc1)[C@@H](C)CN([C@H](C)CO)S2(=O)=O`, the AC50 (Paired box protein Pax-8) is reported as 8 µM (active), the AC50 [5] is reported as 41.1 µM (active) and the AC50 [6] is reported as > 70 µM (inactive).

With `C[C@@H]1CCCCO[C@H](CN(C)Cc2ccc(C(F)(F)F)cc2)[C@H](C)CN([C@@H](C)CO)C(=O)c2cc(NS(=O)(=O)c3ccc(Cl)cc3)ccc2O1` the AC50 (Paired box protein Pax-8) was 5.9 µM (active), the AC50 [5] was 16.4 µM (active) and the AC50 [6] was > 70 µM (inactive).

For `Cc1ccc(S(=O)(=O)N(C)C[C@H]2OCCCC[C@H](C)Oc3ccc(NS(=O)(=O)c4ccc(Cl)cc4)cc3C(=O)N([C@@H](C)CO)C[C@@H]2C)cc1`, the AC50 (Paired box protein Pax-8) was 6.7 µM (active) and the AC50 [6] was > 70 µM (inactive).

With `O=C(CCN1CCN(c2ccccc2)CC1)N/N=C/c1ccccc1OC(F)F` the EC50 [1] was 25.4 µM (inactive) and the EC50 (Mu-type opioid receptor) was 92.5 µM (inactive).

In the case of `Cc1ccc(S(=O)(=O)Oc2cccc(/C=N/Nc3ccc(C(=O)O)cc3)c2)cc1`, the IC50 [4] is reported as 53.5 µM (inactive).

For `COc1ccc2c3c([nH]c2c1)[C@@H](CO)N(Cc1cccc(F)c1)CC31CCN(Cc2ccccn2)CC1`, the AC50 [7] was 1.1 µM (active), the AC50 [8] was 48.6 µM (active) and the AC50 [9] was 1.52 µM (active). The AC50 [10] was 1.21 µM (active) and the AC50 [11] was 1.32 µM (active).

With `COc1ccc(S(=O)(=O)N(C)C[C@H]2Oc3c(NC(=O)Nc4cccc5ccccc45)cccc3C(=O)N([C@@H](C)CO)C[C@H]2C)cc1` the AC50 [7] was 0.277 µM (active), the AC50 [8] was > 100 µM (inactive) and the AC50 [9] was 0.327 µM (active). For the same compound, the AC50 [10] was 0.489 µM (active) and the AC50 [11] was 0.3 µM (active).

In the case of `COc1cccc(NC(=O)N2[C@@H](CO)[C@@H](c3ccccc3)[C@@H]2CNCC(C)C)c1`, the AC50 [7] is reported as 1.4 µM (active), the AC50 [8] is reported as 67.9 µM (active) and the AC50 [9] is reported as 1.05 µM (active). For the same compound, the AC50 [10] was 1.78 µM (active) and the AC50 [11] was 1.08 µM (active).
